This experiment addresses T1, streptavidin (Streptomyces avidinii, UniProt P22629).
T1 construct: purchased Sigma-Aldrich S4762
Nature of the experiment: fl-biotin binding on SA previously immobilized on a PGL coated Epic plate. The conditions noted are these: SA immobilized at 1.5 micrograms/mL with KH2PO4 on PGL Epic plate (PGL formulation of Example 4A). The method, then: Materials: Fluorescein-Biotin from Sigma-Aldrich ref. B943 1; 0.01 M PBS (phosphate buffer); 0.0027 M potassium chloride; and 0.137 M sodium chloride pH 7.4; and dimethylsulfoxide (DMSO).
Preparation of 800 nM fl-biotin solution: 16 microliters of 500 μM fl-biotin solution in DMSO were added to 10 mL of PBS and mixed.
Preparation of PBS/DMSO solution: 16 microliters of DMSO were added to […] of PBS.
Each well of the Epic® plate from Examples 7A, 7B, 9, and 10 was rinsed three (3) times with water using an automatic pipettor. Then 75 microliters of the PBS/DMSO solution were added to each well and the alignment of the optical parts was performed. The plate was left undisturbed until reaching a stable baseline. After reaching a stable base line, 75 microliters of the fl-biotin solution were added to each well and mixed continuously for 2 mins using an automatic pipettor. In the course of the mixing, the binding curve was recorded in real time.
Materials: Unlabeled Streptavidine; KH2PO4 from Sigma-Aldrich ref. P5504; and PBS buffer. First, a […] KH2PO4 solution was prepared and its pH was adjusted to 8. Then 75 microliters of this solution were added to each well from a PGL Epic® coated plate prepared using PGL formulation of Example 4A. The alignment of the optical parts was performed and the plate was left undisturbed until a stable baseline was reached. […]

T1 sequence (P22629 25-183): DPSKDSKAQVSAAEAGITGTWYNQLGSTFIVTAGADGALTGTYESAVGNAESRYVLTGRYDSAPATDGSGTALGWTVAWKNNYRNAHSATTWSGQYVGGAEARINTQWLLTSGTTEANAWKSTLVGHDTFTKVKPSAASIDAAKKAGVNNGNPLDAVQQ

`O=C(CCCCCNC(=O)CCCC[C@@H]1SC[C@@H]2NC(=O)N[C@@H]21)NCCCCCNC(=S)Nc1ccc2c(c1)C(=O)OC21c2ccc(O)cc2Oc2cc(O)ccc21` [fl-biotin, Fluorescein-Biotin]: the “binding of fl-biotin on immobilized SA” value was “easily observed”.

These data come from patent US20100021954A1, “High capacity nanoparticulate immobilization surface” (priority 2008, published 2010).
